Experimental data: US11278555B2, “Combinational therapies for treatment of cancer comprising a bacteriochlorophyll derivative” (Yeda Research and Development Co. Ltd., priority 2016, dated 2022)

Assays:
[1] = tested on: MB49 tumors; assay: WST11 VTP, Gemzar and combination in immune compromised Rag1 KO versus WT mice bearing MB49 tumors; assay type: in vivo; settings: Kaplan-Meier
Description: • (i) Bacteriochlorophyll Derivatives—The Bchl derivatives and RGD-conjugates thereof were provided by Steba Biotech (Rehovot, Israel). […] Concentration was verified by spectrophotometric measurement. STL-7012 was provided as dipotassium salt. Working solution was prepared by dissolving STL-7012 K^+ salt in 5% mannitol solution (1 mg/ml). […] WST11 was supplied as a powder and kept in the dark at −20° C. Stock was prepared by dissolving WST11 in DDW containing 5% glucose and 0.67% mannitol, aliquoted and lyophilized. Working solution was reconstituted with DDW and the concentration of solution was confirmed spectrophotometrically. Alternatively, Clinical WST11 (batch: P00611, and 10-130611) was supplied as lyophilized formulation. Material was dissolved in 5% dextrose, aliquoted and stored at −20° C. […] Whole body imaging of luciferase-transfected tumors and metastases were recorded five minutes following 75 mg Kg^−1 intraperitoneal (i.p.) injection of D-luciferin with respective filter sets. • (vi) PDT treatment protocol: 4T1-Luc cells were grafted in the mammary pad of Balb/c mice. […]

[2] = tested on: CD8, Treg, Teff and TCM T cell populations; assay: Adaptive immune response (T cell populations) of mice bearing MB49 tumors; assay type: in vivo
Description: • (i) Bacteriochlorophyll Derivatives—The Bchl derivatives and RGD-conjugates thereof were provided by Steba Biotech (Rehovot, Israel). […] Concentration was verified by spectrophotometric measurement. STL-7012 was provided as dipotassium salt. Working solution was prepared by dissolving STL-7012 K^+ salt in 5% mannitol solution (1 mg/ml). […] WST11 was supplied as a powder and kept in the dark at −20° C. Stock was prepared by dissolving WST11 in DDW containing 5% glucose and 0.67% mannitol, aliquoted and lyophilized. Working solution was reconstituted with DDW and the concentration of solution was confirmed spectrophotometrically. Alternatively, Clinical WST11 (batch: P00611, and 10-130611) was supplied as lyophilized formulation. Material was dissolved in 5% dextrose, aliquoted and stored at −20° C. At the day of treatment the aliquot was thawed, filtered and the concentration of solution was confirmed spectrophotometrically. • (ii) Chemotherapeutic drugs preparation and storage—Gemcitabine (GEM, Gemzar®, Lilly) was purchased from a local pharmacy as a powder, dissolved in saline to a concentration of 38 mg/ml, aliquoted and stored at −20° C. Aliquots were thawed, diluted with saline to a desired concentration and used on the same day at a dose of 75 mg/kg. Cyclophosphamide (CTX, Endoxan®, Baxter Oncology Gmbh, Germany) was purchased from a local pharmacy. A stock solution of 20 mg/ml was prepared by dissolving in 0.9% NaCl, aliquoted and stored at −20° C. […] Whole body imaging of luciferase-transfected tumors and metastases were recorded five minutes following 75 mg Kg^−1 intraperitoneal (i.p.) injection of D-luciferin with respective filter sets. • (vi) PDT treatment protocol: 4T1-Luc cells were grafted in the mammary pad of Balb/c mice. […]

SMILES: CCC1c2cc3[n-]c(c(CC(=O)OC)c4nc(cc5[n-]c(cc(n2)C1C)c(C(C)=O)c5C)C(C)C4CCC(=O)[O-])c(C(=O)NCCS(=O)(=O)[O-])c3C.[K+].[K+].[Pd+2] (stereo not shown) [WST11, Palladium 3^1-oxo-15-methoxycarbonylmethyl-rhodobacteriochlorin 13^1-(2-sulfoethyl) amide dipotassium salt]
- overall survival of immune compromised (Rag1 KO) mice compared with WT mice [1]: statistically significant decrease
- CD8 cell population in the spleen, blood and draining lymph nodes ([2]; 6 days post treatment): significant elevation
- Treg populations (spleen, blood, lymph nodes) ([2]; 6 days post treatment): no significant effect
- CD8 Tcell/Treg ratio ([2]; day 6 post VTP): no increase
